Reference: the CheMixHub ionic liquid set

Experiment: xn = mol fraction of the nth substance listed
Conditions: for electrical conductivity: 100 kPa; for viscosity: 101 kPa

CCCC[N+](C)(C)C[c-]1cccc1.O=S(=O)([N-]S(=O)(=O)C(F)(F)F)C(F)(F)F.[Fe+2].c1cc[cH-]c1 + CC#N
Conditions | electrical conductivity [S/m]
298 K, x1 = 0.03 | 2.17
303 K, x1 = 0.1 | 1.88
308 K, x1 = 0.08 | 2.2
308 K, x1 = 0.2 | 0.945
313 K, x1 = 0.07 | 2.47
318 K, x1 = 0.01 | 1.58
318 K, x1 = 0.06 | 2.67
318 K, x1 = 0.08 | 2.47
318 K, x1 = 0.15 | 1.58
318 K, x1 = 0.2 | 1.14
323 K, x1 = 0.01 | 1.64
323 K, x1 = 0.2 | 1.24
328 K, x1 = 0.05 | 2.95
328 K, x1 = 0.12 | 2.19
333 K, x1 = 0.01 | 1.75
333 K, x1 = 0.02 | 2.5
333 K, x1 = 0.03 | 2.92
333 K, x1 = 0.07 | 3
338 K, x1 = 0.05 | 3.2
338 K, x1 = 0.07 | 3.15
343 K, x1 = 0.07 | 3.28
343 K, x1 = 0.08 | 3.15
343 K, x1 = 0.15 | 2.19
348 K, x1 = 0.02 | 2.76
348 K, x1 = 0.07 | 3.42
348 K, x1 = 0.08 | 3.3
348 K, x1 = 0.12 | 2.74

CCCC[N+]1(C)CCCC1.O=S(=O)([O-])C(F)(F)F + CC#N
viscosity [mPa·s]
Conditions | 288.15 K | 293.15 K | 298.15 K
x1 = 0.0008322 | 0.377 | 0.358 | 0.34
x1 = 0.001153 | 0.379 | 0.359 | 0.342
x1 = 0.001607 | 0.381 | 0.361 | 0.345
x1 = 0.002041 | 0.383 | 0.364 | 0.347
x1 = 0.002439 | 0.386 | 0.366 | 0.349
x1 = 0.002832 | 0.388 | 0.368 | 0.351
x1 = 0.003272 | 0.39 | 0.369 | 0.353
x1 = 0.003684 | 0.392 | 0.372 | 0.355
x1 = 0.004131 | 0.394 | 0.374 | 0.357
x1 = 0.00964 | 0.423 | 0.404 | 0.386
x1 = 0.01639 | 0.458 | 0.437 | 0.417
x2 = 0.9756 | 0.498 | 0.473 | 0.45
